These results are taken from patent US10851152B2, “Polymerized peptide and gel having collagen-like structure” (WASEDA UNIVERSITY, priority 2015, dated 2020).

Data set [1] is described as follows: CD spectrum measurement of triple-helical structure and its thermal stability. The class given is physicochemical. To be noted: 1 mg/ml in 0.05% TFA/H2O; measured at 4° C., 37° C. and 80° C. Here is the method: The structure of the peptide was confirmed by CD spectrum (circular dichroism spectrometer J-820, JASCO Corporation). A peptide powder was dissolved in a degassed 0.05% TFA/H2O to prepare a solution of 1 mg/ml. After heating at 80° C. for 5 min, the solution was left to stand at 4° C. overnight to cause refolding as a measurement sample. CD spectrum was measured under the conditions of: temperature 4° C., 37° C., 80° C.; cell length 0.05 cm; sensitivity standard (100 mdeg); measurement wavelength 250 to 190 nm; data collection interval 0.2 nm; scanning speed 50 nm/min; response 0.5 sec; band width 1 nm; cumulated number 4. A signal obtained (θobs) was expressed as a residue average molar ellipticity (θmrw). θmrw was calculated by the following formula.
A thermal stability of the triple-helical structure was observed by monitoring θmrw, 225 associated with a change in temperature. The measurement conditions were: 4 to 75° C. or 4 to 90° C.; cell length 0.05 cm; measurement wavelength 225 nm; data collection interval 0.5° C.; temperature gradient 18° C./h; sensitivity standard (100 mdeg); response 2 sec; band width 1 nm. It was determined that the triple-helical structure completely turned into a random coil structure in a region where the signal was linearly diminishing.

Data set [2] can be described thus: Remaining thiol group (Ellman's reagent) in oxidative polymerization reaction. The class given is physicochemical. Particulars: SH amount at 0 hour being 100%; 10% DMSO, peptide 1% (w/v); 74 hours. Here is the method: Degassed water was used to prepare a peptide solution having a concentration of 1.11% (w/v), and the solution was then put into a PCR tube. After heating this solution at 80° C. for 5 min, it was then left to sand still at 4° C. overnight. By adding DMSO to this solution, there was prepared a peptide solution having a final concentration of 10% DMSO, peptide 1% (w/v). The PCR tube was then filled with a mineral oil in a way such that the mineral oil covered the surface of the solution. In every measurement, the mineral oil was eliminated from the peptide solution to prepare a peptide solution for oxidation monitoring. Ellman's reagent was prepared in a way such that 9 mg/ml of DTNB was present in 50 mM of a phosphate buffer solution (pH 8.4). 33 mM phosphate buffer solution (pH 8.4) and Ellman's reagent 1.5 mg/ml were left to stand for […], then a light absorbance was then measured after a solution with a final concentration of peptide 0.167 mg/ml. Recorded were changes in absorbance with time, with a moment when DMSO was added being a starting point (0 hour). Since the Ellman's reagent generates 5-mercapto-2-nitrobenzoate (λ max=412 nm, ε=1.55×10^4) depending on the amount of thiol groups (referred to as “SH groups” hereunder) in the peptide, measured was a absorbance at 412 nm. After the measurement, optical path length was compensated by measuring absorbance at 997 nm and 900 nm.

Data set [3] in a line: Hydrogel formation judged by holding of a stainless ball. The class given is physicochemical. To be noted: 1% (w/v) peptide, 10% DMSO, room temperature, up to three days. The method, then:
Degassed water was used to prepare a peptide solution having a concentration of 1.11% (w/v) or 1.66% (w/v), and the solution was then put into a PCR tube. After heating this solution at 80° C. for 5 min using a polymerase chain reaction (PCR) machine (TaKaRa PCR Thermal Cycler, TAKARA BIO INC.), the solution was then left to stand at 4° C. overnight. By adding DMSO and water to this solution, there was prepared a peptide solution having a concentration of 10% DMSO, 0.1 to 1.5% (w/v). The PCR tube was then filled with a mineral oil in a way such that the mineral oil covered the liquid surface, followed by allowing the solution to stand at room temperature for a given period of time to achieve a gel. Then, gel formation was determined by looking at whether a stainless ball could be held by the gel.

Data set [4] has as its system MDA-MB-231. In words: Cell adhesion assay on coated 96-well plate, MDA-MB-231. Format: cell-based, Human. Particulars: for cell adhesion of MDA-MB-231: coated 96-well plate. Here is the method:
(§1) D-MEM High Glucose, D-MEM Low Glucose and 0.5% trypsin/EDTA were purchased from Wako Pure Chemical Industries, Ltd. (Osaka); FBS, penicillin. streptomycin (100×) were purchased from Invitrogen (Thermo Fisher Scientific corporation). Human mammary gland cancer (MDA-MB-231) was purchased from ATCC; Human skin fibroblasts (HDF) were purchased from Cell Applications. MDA-MB-231 was cultured using DMEM High Glucose (10% FBS, 100 Units/ml penicillin, 100 μg/ml streptomycin), and then maintained; and HDF was cultured using DMEM Low Glucose (10% FBS, 100 Units/ml penicillin, 100 μg/ml streptomycin), and then maintained. When used in cell adhesion assay and Western blotting, the cells were treated with 0.05% trypsin/EDTA, and then collected in a 15 ml tube to be subjected to centrifugal treatment at 1,200 rpm for four minutes. After the removal of the supernatant, the cells were suspended with an incubation medium by which the cells were incubated at 37° C. for 20 to 30 min and then recovered. Such cell suspension was used for cell adhesion assay and Western blotting.
(§2) Type I collagen (KOKEN CO., LTD, Tokyo) and BSA (Jackson Immuno Research Laboratories Inc., USA), in an aqueous solution as 30 μg/ml, were added to a 96-well plate (Nunc MicroWell 96-Well Microplates) by an amount of 50 μl/well, followed by drying the sample for two nights. Collagen-like peptides having no Cys residue were prepared as aqueous solutions of 1 to 3 mg/ml, and then heated at 95° C. for 5 min, followed by storing them at 4° C. overnight to form the triple-helical structure. Then, they were diluted to 30 μg/ml, and then added to a 96-well plate in an amount of 50 μl/well followed by drying them for two nights. Collagen-like peptides having Cys residues were dissolved in a degassed 0.05% (v/v) TFA aqueous solution, followed by preparing to a concentration of 300 μg/ml, and then heating the sample at 80° C. for 5 min. […] Further, a mineral oil was layered on the peptide solution, and such peptide solution was then oxidized at room temperature until thiol could no longer be detected by Ellman's test. […]

The subject of data set [5] is HDF. In words: Cell adhesion assay on coated 96-well plate, HDF. The class given is cell-based, Human. To be noted: 37° C., 5% CO2, 60 min. The method, then:
as §1, §2

Non-standard residues stand in square brackets, D forms with d. No end group written: not given here. Hyp = O=C(O)[C@@H]1C[C@@H](O)CN1

In the case of “YCCGPPOGGOPOGPPOGGOPOGRPOGPPOGGOPOGCCY (YCCGPP[Hyp]GG[Hyp]P[Hyp]GPP[Hyp]GG[Hyp]P[Hyp]GRP[Hyp]GPP[Hyp]GG[Hyp]P[Hyp]GCCY; not fully specified; cysteine pairing not given here) [YCC2-Scr]”, the “formation of triple-helical structure (CD spectrum, positive Cotton effect at about 225 nm)” value in data set [1] was “did not form the triple-helical structure”. Moreover, the “ratio of SH amount” value in data set [2] was “approximately 0%”. The gel-forming capability entry in data set [3] is on record as “did not turn into a gel”.
Regarding “Ac-G(POG)4FOGERG(POG)5-NH2 (GPPGPPGPPGPPGFPGERGPPGPPGPPGPPGPPG; HELM PEPTIDE1{[ac].G.P.[Hyp].G.P.[Hyp].G.P.[Hyp].G.P.[Hyp].G.F.[Hyp].G.E.R.G.P.[Hyp].G.P.[Hyp].G.P.[Hyp].G.P.[Hyp].G.P.[Hyp].G.[am]}$$$$V2.0; SMILES CC(=O)NCC(=O)N1CCC[C@H]1C(=O)N1C[C@H](O)C[C@H]1C(=O)NCC(=O)N1CCC[C@H]1C(=O)N1C[C@H](O)C[C@H]1C(=O)NCC(=O)N1CCC[C@H]1C(=O)N1C[C@H](O)C[C@H]1C(=O)NCC(=O)N1CCC[C@H]1C(=O)N1C[C@H](O)C[C@H]1C(=O)NCC(=O)N[C@@H](Cc1ccccc1)C(=O)N1C[C@H](O)C[C@H]1C(=O)NCC(=O)N[C@@H](CCC(=O)O)C(=O)N[C@@H](CCCNC(=N)N)C(=O)NCC(=O)N1CCC[C@H]1C(=O)N1C[C@H](O)C[C@H]1C(=O)NCC(=O)N1CCC[C@H]1C(=O)N1C[C@H](O)C[C@H]1C(=O)NCC(=O)N1CCC[C@H]1C(=O)N1C[C@H](O)C[C@H]1C(=O)NCC(=O)N1CCC[C@H]1C(=O)N1C[C@H](O)C[C@H]1C(=O)NCC(=O)N1CCC[C@H]1C(=O)N1C[C@H](O)C[C@H]1C(=O)NCC(N)=O) [Soluble GFOGER]”, the “cell adhesion of MDA-MB-231” value in data set [4] is given as “cell adhesion was not observed”. The “cell adhesion of HDF” value in data set [5] is recorded as “cellular adhesion was not observed”.
Consider gelatin, for which the “cell adhesion of MDA-MB-231” value in data set [4] is listed as “Significant cell adhesion was observed”.
Consider “G(POG)7IKGHRGFSGLOG(POG)6-NH2 [Soluble KGHRGF]”, for which the “cell adhesion of HDF” value in data set [5] is “cellular adhesion was not observed”.
On to “G(POG)4PRGQOGVMGFOG(POG)4-NH2 [Soluble GVMGFO]”, for which the “cell adhesion of HDF” value in data set [5] is reported as “cellular adhesion was not observed”.
Regarding “YCC(POG)5FOGERG(POG)5CCY (YCCP[Hyp]GP[Hyp]GP[Hyp]GP[Hyp]GP[Hyp]GF[Hyp]GERGP[Hyp]GP[Hyp]GP[Hyp]GP[Hyp]GP[Hyp]GCCY; not fully specified; cysteine pairing not given here) [YCC2-GFOGER]”, the “content of YCC2-GFOGER giving the same level of cell adhesion capability as collagen” value in data set [4] (mixed polymerized peptide of YCC2 and YCC2-GFOGER, MDA-MB-231, 180 min) is 30%.
